For orientation: IC50 means the midpoint of a concentration-inhibition curve.

These results are taken from patent US20190169140A1, “IDO1 INHIBITOR AND PREPARATION METHOD AND APPLICATION THEREOF” (SHANDONG LUYE PHARMACEUTICAL CO., LTD., priority 2016, published 2019).

T1 sequence (P14902 whole entry): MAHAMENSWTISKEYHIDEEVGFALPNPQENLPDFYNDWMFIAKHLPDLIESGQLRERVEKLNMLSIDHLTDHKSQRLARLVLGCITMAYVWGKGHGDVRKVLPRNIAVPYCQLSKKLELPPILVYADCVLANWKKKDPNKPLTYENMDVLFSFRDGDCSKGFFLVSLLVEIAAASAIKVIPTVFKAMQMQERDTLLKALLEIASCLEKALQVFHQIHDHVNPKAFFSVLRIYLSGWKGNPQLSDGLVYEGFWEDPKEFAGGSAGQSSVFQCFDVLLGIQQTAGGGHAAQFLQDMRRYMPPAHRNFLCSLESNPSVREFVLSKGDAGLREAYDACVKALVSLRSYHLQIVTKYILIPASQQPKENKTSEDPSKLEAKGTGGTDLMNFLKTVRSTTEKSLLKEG

The first experiment concerns the target T1, recombinant human IDO1 enzyme (Homo sapiens, UniProt P14902).
T1 construct: purchased NTRC (Netherlands Translational Research Center) NTRC-hIDO-10K
As to the kind of experiment: Test of hIDO1 for enzymatic activity in vitro (NFK Green fluorescence). The format is biochemical.
Conditions: not given
Here is the method:
1. Test of hIDO1 for Enzymatic Activity In Vitro
1.1 Purpose of Experiment:
Changes in production of NFK, an IDO1 enzymatic metabolite were detected with NFK Green™ fluorescent molecules. With an IC50 value of a compound as an index, an inhibitory effect of the compound on recombinant human IDO1 enzyme was evaluated.
The compound was diluted with dimethyl sulfoxide (DMSO) to 1 mM, with 10 gradients, each 3-fold dilution, in duplicate. 48 μL of 50 mM phosphate buffer, having pH of 6.5, was transferred by the Bravo automatic liquid processing platform to the compound plate. Then 2 μL of an already diluted compound/DMSO solution was added. After even mixing, 10 μL of the resultant mixture was transferred to the enzymatic reaction plate.
IDO1 enzyme was diluted to 20 nM in a reaction buffer (50 mM phosphate buffer with pH of 6.5, 0.1% of Tween-20, 2% of glycerol, 20 mM ascorbic acid, 20 μg/ml catalase, and 20 μM methylene blue), 20 μL of the diluted IDO1 enzyme was transferred to the enzymatic reaction plate, and incubated at 23° C. for 30 minutes. 10 μL of 400 μM L-type tryptophan substrate was added to start reaction. The incubation lasted at 23° C. for 90 minutes. 10 μL of NFK Green™ fluorescent dye was added. The resultant mixture was sealed with the plate sealing film. After incubation at 37° C. for 4 hours, an Envision multi-functional plate reader was used for reading (Ex 400 nm/Em 510 nm).
A reference well to which the IDO1 enzyme was added but no compound was added was set to have an inhibition rate of 0%, and a reference well to which no IDO1 enzyme was added was set to have an inhibition rate of 100%. Data was analyzed with XLFit 5 to calculate an IC50 value of the compound.
Turning to `O/N=C(\Nc1ccc(F)c(Br)c1)c1nonc1O` [Compound 0026], the IC50 is > 10 µM.

In the case of `COc1nonc1/C(=N/O)Nc1ccc(F)c(Br)c1` [Compound 0052], the IC50 was 0.109 µM.

Take `CSc1nonc1/C(=N/O)Nc1ccc(F)c(Br)c1` [Compound 0068]: the IC50 came out at 0.113 µM.

Consider `COc1nonc1/C(=N/C#N)Nc1ccc(F)c(Br)c1` [Compound 0069], for which the IC50 is > 10 µM.

On to `NS(=O)(=O)NC1(COc2nonc2/C(=N/O)Nc2ccc(F)c(Br)c2)CC1` [Compound 0070], for which the IC50 is 1.38 µM.

On to `CC(COc1nonc1/C(=N/O)Nc1ccc(F)c(Br)c1)NS(N)(=O)=O` (stereo not drawn) [Compound 0071], for which the IC50 is 0.799 µM.

Take `NOc1nonc1/C(=N/O)Nc1ccc(F)c(Br)c1` [Compound 0077]: the IC50 was > 10 µM.

As for `CC(C)(C)OC(=O)NOc1nonc1/C(=N/O)Nc1ccc(F)c(Br)c1` [Compound 0078], the IC50 is > 10 µM.

Turning to `NS(=O)(=O)NC(COc1nonc1/C(=N/O)Nc1ccc(F)c(Br)c1)c1ccccc1` (stereo not drawn) [Compound 0089], the IC50 was found to be 0.981 µM.

Regarding `COc1nonc1/C(=N/O)Nc1ccc(F)c(C#N)c1` [Compound 0103], the IC50 was found to be 0.537 µM.

As for `CS(=O)(=O)NCCOc1nonc1/C(=N/O)Nc1ccc(F)c(Br)c1` [Compound 0106], the IC50 worked out at 0.106 µM.

For the molecule `O=S(=O)(NCCOc1nonc1/C(=N/O)Nc1ccc(F)c(Br)c1)c1ccccc1` [Compound 0107], the IC50 was 1.3 µM.

For `O=C(NCCOc1nonc1/C(=N/O)Nc1ccc(F)c(Br)c1)c1ccccc1` [Compound 0108], the IC50 is 0.387 µM.

Consider `NS(=O)(=O)NCCCOc1nonc1/C(=N/O)Nc1ccc(F)c(Br)c1` [Compound 0118], for which the IC50 was 0.0553 µM.

Consider `CC(CNS(N)(=O)=O)Oc1nonc1/C(=N/O)Nc1ccc(F)c(Br)c1` (stereo not drawn) [Compound 0119], for which the IC50 worked out at 2.07 µM.

For the molecule `N#Cc1cc(N/C(=N\O)c2nonc2OCCNS(N)(=O)=O)ccc1F` [Compound 0120], the IC50 turned out to be 0.616 µM.

As for `NS(=O)(=O)NCCOc1nonc1/C(=N/O)Nc1ccc(F)c(C(F)(F)F)c1` [Compound 0121], the IC50 came out at 0.188 µM.

As for `NS(=O)(=O)NCCOc1nonc1/C(=N/O)Nc1ccc(F)c(C2CC2)c1` [Compound 0122], the IC50 came out at 0.565 µM.

In the case of `O/N=C(\Nc1ccc(F)c(Br)c1)c1nonc1OC1CCOC1` (stereo not drawn) [Compound 0124], the IC50 stood at 1.03 µM.

Turning to `COCCCCOc1nonc1/C(=N/O)Nc1ccc(F)c(Br)c1` [Compound 0128], the IC50 worked out at 0.601 µM.

Consider `O/N=C(\Nc1ccc(F)c(Br)c1)c1nonc1OCC1COC1` [Compound 0129], for which the IC50 stood at 0.426 µM.

For `O/N=C(\Nc1ccc(F)c(Br)c1)c1nonc1OCCc1ccccn1` [Compound 0131], the IC50 came out at 0.702 µM.

`CN(CCOc1nonc1/C(=N/O)Nc1ccc(F)c(Br)c1)Cc1ccccc1` [Compound 0133]: the IC50 was found to be 1.03 µM.

For `O/N=C(\Nc1ccc(F)c(Br)c1)c1nonc1SCc1ccccc1Cl` [Compound 0134], the IC50 was determined as 7.15 µM.

In the case of `O/N=C(\Nc1ccc(F)c(Br)c1)c1nonc1OCC(F)(F)F` [Compound 0135], the IC50 worked out at 3.29 µM.

As for `O/N=C(\Nc1ccc(F)c(Br)c1)c1nonc1SC1CCCCC1` [Compound 0137], the IC50 came out at 5.71 µM.

As for `C=CCSc1nonc1/C(=N/O)Nc1ccc(F)c(Br)c1` [Compound 0138], the IC50 was 0.364 µM.

Take `CNC(=O)COc1nonc1/C(=N/O)Nc1ccc(F)c(Br)c1` [Compound 0139]: the IC50 stood at 0.265 µM.

Take `CN(C)CCOc1nonc1/C(=N/O)Nc1ccc(F)c(Br)c1` [Compound 0140]: the IC50 came to 0.197 µM.

As to `CS(=O)(=O)N1CC(COc2nonc2/C(=N/O)Nc2ccc(F)c(Br)c2)C1` [Compound 0141], the IC50 is 0.452 µM.

As for `CS(=O)(=O)N1CCC(COc2nonc2/C(=N/O)Nc2ccc(F)c(Br)c2)CC1` [Compound 0142], the IC50 was determined as 1.31 µM.

For the molecule `O/N=C(\Nc1ccc(F)c(Br)c1)c1nonc1OCc1c[nH]cn1` [Compound 0143], the IC50 was > 10 µM.

Take `O/N=C(\Nc1ccc(F)c(Br)c1)c1nonc1OCc1cncs1` [Compound 0144]: the 50% inhibitory concentration (IC50) was > 10 µM.

Turning to `NCCOc1nonc1/C(=N/O)Nc1ccc(F)c(Br)c1` [Compound 0147], the IC50 was 0.0715 µM.

As for `CP(C)(=O)NCCOc1nonc1/C(=N/O)Nc1ccc(F)c(Br)c1` [Compound 0149], the IC50 was found to be 0.29 µM.

As to `O/N=C(\Nc1ccc(F)c(Br)c1)c1nonc1Oc1ccc(Cl)cc1` [Compound 0150], the IC50 was > 10 µM.

In the case of `NS(=O)(=O)NCCOc1nonc1/C(=N/O)Nc1cc(F)c(Cl)c(F)c1` [Compound 0156], the IC50 was found to be 5.7 µM.

Consider `COc1c(F)cc(N/C(=N\O)c2nonc2OCCNS(N)(=O)=O)cc1F` [Compound 0158], for which the IC50 amounted to 4.36 µM.

Turning to `NS(=O)(=O)NCCOc1nonc1/C(=N/O)Nc1ccc(Cl)c(Cl)c1` [Compound 0160], the IC50 stood at 3.83 µM.

Turning to `NS(=O)(=O)NCCOc1nonc1/C(=N/O)Nc1ccc(F)c(F)c1` [Compound 0162], the IC50 turned out to be 0.928 µM.

Take `O=C1NCCN1CCOc1nonc1/C(=N/O)Nc1ccc(F)c(Br)c1` [Compound 0179]: the IC50 came out at 0.594 µM.

In the case of `CCS(=O)(=O)CCOc1nonc1/C(=N/O)Nc1ccc(F)c(Br)c1` [Compound 0180], the IC50 was > 10 µM.

`CN(C)CCN(C)CCOc1nonc1/C(=N/O)Nc1ccc(F)c(Br)c1` [Compound 0182]: the IC50 was 0.673 µM.

Turning to `CCN(CC)C(=O)COc1nonc1/C(=N/O)Nc1ccc(F)c(Br)c1` [Compound 0183], the IC50 worked out at 1.12 µM.

As for `NS(=O)(=O)NCCOc1nonc1/C(=N/O)Nc1ccc(Cl)c(C(F)(F)F)c1` [Compound 0184], the IC50 turned out to be 4.83 µM.

Take `NS(=O)(=O)NCCOc1nonc1/C(=N/O)Nc1cc(F)c(F)c(Br)c1` [Compound 0189]: the IC50 amounted to 0.59 µM.

As to `NS(=O)(=O)NCCOc1nonc1/C(=N/O)Nc1ccc(F)c(Cl)c1` [Compound 0190], the IC50 worked out at 0.945 µM.

Regarding `NS(=O)(=O)N[C@H]1C[C@H](Oc2nonc2/C(=N/O)Nc2ccc(F)c(Br)c2)C1` [Compound 0222], the IC50 turned out to be 0.466 µM.

Turning to `O=S(=O)(NCCSc1nonc1/C(=N/O)Nc1ccc(F)c(Br)c1)C1CC1` [Compound 0230], the IC50 was determined as 0.203 µM.

Take `CN(C)S(=O)(=O)NCCSc1nonc1/C(=N/O)Nc1ccc(F)c(Br)c1` [Compound 0232]: the IC50 turned out to be 0.373 µM.

For `NS(=O)(=O)NCC[S+]([O-])c1nonc1/C(=N/O)Nc1ccc(F)c(Br)c1` (stereo not drawn) [Compound 0239], the IC50 was determined as 0.846 µM.

As to `CCNC(=O)CSc1nonc1C(=NO)Nc1ccc(F)c(Br)c1` [Compound 0300], the 50% inhibitory concentration (IC50) turned out to be 0.0726 µM.

As for `O=C(CSc1nonc1/C(=N/O)Nc1ccc(F)c(Br)c1)NCC(F)(F)F` [Compound 0301], the half-inhibitory concentration (IC50) came out at 0.125 µM.

`O=C(CSc1nonc1/C(=N/O)Nc1ccc(F)c(Br)c1)NCC(F)F` [Compound 0302]: the IC50 is 0.088 µM.

For a further experiment, the target named is T2, IDO1 enzyme in Hela cells (Homo sapiens, UniProt P14902).
T2 construct: endogenous in cells; host or cells: Hela cells, induced with recombinant human interferon-γ
T2 sequence (P14902 whole entry): as above
The experiment can be described thus: Test of hIDO1 for cytological activity (Hela cell kynurenine by LCMS, interferon-γ induced). The conditions noted are these: interferon-γ 100 ng/ml, 20 hours. It counts as cell-based. Here is the method:
2. Test of hIDO1 for Cytological Activity
Changes in Hela cell kynurenine were detected by an LCMS method. With an IC50 value of a compound as an index, an inhibitory effect of the compound on IDO1 enzyme was evaluated.
The culture medium, trypsin, and DPBS were preheated in water bath at 37° C. The culture medium was removed by sucking from cell culture, followed by cleaning the cell culture with 10 mL of DPBS; the preheated trypsin was added to the culture flask, which was revolved to make the culture flask covered by trypsin uniformly, and placed into an incubator at 37° C. with 5% CO2 for digestion for 1-2 minutes; 10-15 mL of the culture medium was used to suspend cells each T150, followed by centrifugation at 800 rpm for 5 minutes. 10 mL of the culture medium was used to resuspend the cells. 1 mL of the cell resuspension was pipetted, and counted with Vi-cell; the Hela cells were diluted to 5×10^5/mL with the culture medium, 80 μL of the diluted Hela cells were added to the 96-well cell plate, and incubated in the an incubator at 37° C. with 5% CO2 for 5-6 hours.
The compound was diluted with DMSO to 1 mM, with 9 gradients, each 3-fold dilution, in duplicate. 5 μL of the already diluted compound DMSO solution was added to the compound plate containing 95 μL of the culture medium. After even mixing, 10 μL of the mixture was transferred to the cell plate.
10 μL of recombinant human interferon-γ was added to result in a final concentration of 100 ng/ml, to induce expression of IDO1. Incubation was carried out in the 5% CO2 incubator at 37° C. for 20 hours. 4 μL of 5% (w/v) trichloroacetic acid was added, followed by even mixing and incubation at 50° C. for 30 minutes. After centrifugation at 2400 rpm for 10 minutes, 40 μL of a supernatant was added to a 96-well V-bottom plate, followed by addition of a precipitant. Centrifugation was carried out at 4000 rpm for 10 minutes after even mixing. 100 μL of the supernatant was transferred to a new 96-well V-bottom plate. A content of kynurenine was detected through LCMS.
A reference well to which the interferon-γ was added but no compound was added was set to have an inhibition rate of 0%, and a reference well to which no Hela cell was added was set to have an inhibition rate of 100%. Data was analyzed with XLFit 5 to calculate an IC50 value of the compound.
Turning to `COc1nonc1/C(=N/O)Nc1ccc(F)c(Br)c1` [Compound 0052], the IC50 was found to be 0.0249 µM.

Turning to `CSc1nonc1/C(=N/O)Nc1ccc(F)c(Br)c1` [Compound 0068], the IC50 came out at 0.0286 µM.

The molecule `CS(=O)(=O)NCCOc1nonc1/C(=N/O)Nc1ccc(F)c(Br)c1` [Compound 0106] yielded an IC50 of 0.0369 µM.

In turn, `NS(=O)(=O)NCCCOc1nonc1/C(=N/O)Nc1ccc(F)c(Br)c1` [Compound 0118] showed an IC50 of 0.0645 µM.

On to `CNC(=O)COc1nonc1/C(=N/O)Nc1ccc(F)c(Br)c1` [Compound 0139], for which the IC50 is 0.1 µM.

In the case of `NCCOc1nonc1/C(=N/O)Nc1ccc(F)c(Br)c1` [Compound 0147], the IC50 amounted to 0.123 µM.
